Values after ≈ are worked out from the molar mass of the structure shown.
Experiments:
[1] = Oral kinetic assay in mice: plasma concentration of ACX after oral delivery of FCX or ACX-Ac; assay type: in vivo, mice Hsd: ICR (CD-1); details: for AUCt, area under the concentration-time curve from 0 to the time of the last quantifiable observation, of ACX / Cmax: ACX measured in plasma after the named compound, oral (intragastric), single 10 mg/kg, sunflower oil; for AUCt, area under the concentration-time curve from 0 to the time of the last quantifiable observation, of ACX: linear-log trapezoidal rule; for Cmax: noncompartmental analysis, read-out: Cmax, maximum observed plasma concentration of ACX
Description: Immunocompetent mice from the strain Hsd: ICR (CD-1) (females, 6-7 weeks old from ENVIGO), were housed under sterile conditions at a constant temperature of 20-22° C. and relative humidity (45-65%) under daily cycles of light/darkness (12 hours). Sterilized water and food were available ad libitum.
ACX-Ac was dissolved at 1 mg/mL in sunflower oil and sterilized by filtration. FCX was dissolved at 2 mg/mL in sunflower oil and sterilized by filtration. Animals were weighted before the assay to determine the appropriate dispensing volume at 5 mL/kg (FCX) or 10 ml/kg (ACX-Ac). Formulations were administered once, intragastrically, at 10 mg/kg. Blood was collected at different time points, as stated in Table 1. It was extracted either through the facial vein or by intracardiac puncture (end points), on recipients containing 5 μL of 0.5 M EDTA.
Blood samples were analyzed by HPLC-MS/MS following proprietary analytical methods and the concentration of ACX in each sample was determined. A non-compartmental pharmacokinetic analysis was carried out using individual plasma concentrations versus sampling times by means of the PKPlus® software version 2.0 (Simulations Plus, Lancaster, CA 93534, USA).

[2] = Solubility in different lipid vehicle formulations (HPLC assay of the filtered sample); assay type: physicochemical; details: about 25 mg compound in 1 mL
Description: About 25 mg of compound was weighted into a glass vial and 1 mL of the lipophilic solvent was added to the vial containing the compound. The vial was vortexed for 1 minute followed by sonication for 30 minutes. The resulting solution was visually observed for any undissolved particles. The sonicated sample was filtered through a 0.22 μm PTFE filter and 500 μL of this filtered sample was dissolved with 25 mL of a EtOH: hexane (80:20) solution (“dilution 1”). 1 mL of “dilution 1” was dissolved with 10 mL of ACN to obtain “dilution 2”. 1 mL of “dilution 2” was filtered through a 0.22 μm PTFE filter and directly used for assay by HPLC. The concentration was calculated by extrapolation from a calibration curve. 1.00 mg of standard compound was accurately weighted (precision scale) and diluted to 100 ppm in a volumetric flask.

[3] = DHA (fish oil), PUFA-enriched oil

Row | administered compound detected in plasma samples ([1]; oral, 10 mg/kg in sunflower oil) | plasma levels of ACX in comparison to those obtained after FX administration ([1]; oral, 10 mg/kg in sunflower oil, FIG. 1 and Table 3) | Structure (SMILES) | AUCt, area under the concentration-time curve from 0 to the time of the last quantifiable observation, of ACX [1] [µM·h] | Cmax [1] [µM] | solubility [2, 3] [mg/mL] | solubility ([2]; Labrafac Lipophile 1349) [mg/mL] | solubility ([2]; Labrafac MC60) [mg/mL] | solubility ([2]; Labrafil M 1944CS) [mg/mL] | solubility ([2]; Labrafil M 2125) [mg/mL] | solubility ([2]; Labrasol ALF) [mg/mL] | solubility ([2]; Maisine) [mg/mL] | solubility ([2]; Plurol Oleique) [mg/mL] | solubility ([2]; Sunflower oil) [mg/mL] | oral absorption of the administered compound ([1]; oral, oil formulation, 10 mg/kg)
1 | not detected | substantially higher | CC(=O)O[C@H]1CC(C)(C)C(=C=C/C(C)=C/C=C/C(C)=C/C=C/C=C(C)/C=C/C=C(\C)C(=O)C[C@@]2(O)C(C)=CC(=O)CC2(C)C)[C@](C)(O)C1 [ACX-Ac, Amarouciaxanthin A acetate] | 80.59 | 9.35 | 18.3 | 21.7 | 21.0 | 22.6 | 23.0 | 22.4 | 22.9 | 11.9 | 19.9 | –
2 | – | – | CC(=O)O[C@H]1CC(C)(C)C(=C=C/C(C)=C/C=C/C(C)=C/C=C/C=C(C)/C=C/C=C(\C)C(=O)C[C@@]23O[C@]2(C)C[C@@H](O)CC3(C)C)[C@](C)(O)C1 [FCX, fucoxanthin] | 51.19 | 2.87 | 4.1 (≈ 6.22 mM) | 16.9 (≈ 25.6 mM) | 20.4 (≈ 31 mM) | 17.6 (≈ 26.7 mM) | 23.0 (≈ 34.9 mM) | 22.3 (≈ 33.8 mM) | 23.0 (≈ 34.9 mM) | 20.7 (≈ 31.4 mM) | 5.0 (≈ 7.59 mM) | negligible
3 | – | – | CC1=CC(=O)CC(C)(C)[C@@]1(O)CC(=O)/C(C)=C/C=C/C(C)=C/C=C/C=C(C)/C=C/C=C(\C)C=C=C1C(C)(C)C[C@H](O)C[C@@]1(C)O [ACX, Amarouciaxanthin A] | – | – | 7.2 (≈ 11.7 mM) | 19.0 (≈ 30.9 mM) | 15.9 (≈ 25.9 mM) | 19.9 (≈ 32.4 mM) | 20.3 (≈ 33 mM) | 22.4 (≈ 36.4 mM) | 19.9 (≈ 32.4 mM) | 16.7 (≈ 27.2 mM) | 9.2 (≈ 15 mM) | –

— patent US20260263338A1, “COMPOSITIONS COMPRISING AMAROUCIAXANTHIN A ESTERS AND USES THEREOF” (GAT THERAPEUTICS, S.L., priority 2022, published 2026)
